The values that follow come from ChEMBL document CHEMBL3879908, “Pyrrolidinone carboxamide derivatives” (2014).

For orientation: IC50 means the point on the concentration scale where inhibition reaches its midpoint. Read a high IC50 as weaker potency.

The target of this assay is T1, Chemerin-like receptor 1 (Homo sapiens, UniProt Q99788).
T1 sequence (Q99788 whole entry): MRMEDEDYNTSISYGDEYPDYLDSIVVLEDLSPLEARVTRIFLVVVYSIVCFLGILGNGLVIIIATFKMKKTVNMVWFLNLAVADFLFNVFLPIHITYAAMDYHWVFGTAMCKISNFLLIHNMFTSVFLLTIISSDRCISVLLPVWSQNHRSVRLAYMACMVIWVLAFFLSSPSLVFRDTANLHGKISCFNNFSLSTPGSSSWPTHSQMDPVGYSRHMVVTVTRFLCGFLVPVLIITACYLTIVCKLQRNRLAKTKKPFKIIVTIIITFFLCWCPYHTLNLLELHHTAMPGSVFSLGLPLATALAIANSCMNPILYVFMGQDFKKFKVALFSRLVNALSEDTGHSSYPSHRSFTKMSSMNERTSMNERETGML
The assay is described as follows: Displacement of [125I]-chemerin from ChemR23 (unknown origin) transfected in mouse BaF3 cells after 3 hrs by scintillation counting method. It is filed as cell-based. A general note: Displacement assays read how much labelled ligand stays bound in the presence of the test substance.
Regarding `CCN(CCF)C[C@@]1(C(=O)Nc2cc(C(F)(F)F)cc(C(F)(F)F)c2)CN(c2c(C)cccc2C)C(=O)[C@H]1C`, the IC50 is ≤ 30 nM.

The compound `Cc1cccc(C)c1N1CC(C(=O)Nc2ccc(Cl)c(C(F)(F)F)c2)CC1=O` (stereo not drawn) returned an IC50 of 300 to 6000 nM.

Regarding `Cc1cccc(C)c1N1CC(CCC(C)C)(C(=O)Nc2cc(C(F)(F)F)cc(C(F)(F)F)c2)CC1=O` (stereo not drawn), the IC50 was ≤ 30 nM.

On to `CCN(CC(C)C)C[C@@]1(C(=O)Nc2cc(C(F)(F)F)cc(C(F)(F)F)c2)CN(c2c(C)cccc2C)C(=O)[C@H]1C`, for which the IC50 is ≤ 30 nM.

For the compound `Cc1cccc(C)c1N1CC(C(=O)Nc2cc(N3CCCC3)cc(C(F)(F)F)c2)CC1=O` (stereo not drawn), the IC50 was in the range of 30 to 300 nM.

For `CCN(CC)C[C@@]1(C(=O)Nc2cc(C#N)cc(C(F)(F)F)c2)CN(c2c(C)cccc2C)C(=O)[C@H]1C`, the IC50 was ≤ 30 nM.

With `Cc1cccc(C)c1N1CC(C(=O)Nc2cc(C(F)(F)F)cc(C(F)(F)F)c2)(C2=CCN(C(=O)OC(C)(C)C)CC2)CC1=O` (stereo not drawn), the half-inhibitory concentration (IC50) was ≤ 30 nM.

Take `CCN(C)C[C@@]1(C(=O)Nc2cc(C(F)(F)F)cc(C(F)(F)F)c2)CN(c2c(C)cccc2C)C(=O)[C@H]1C`: the IC50 is ≤ 30 nM.

Turning to `CCCC[C@@]1(C(=O)Nc2cc(C(F)(F)F)cc(C(F)(F)F)c2)CN(c2c(C)cccc2C)C(=O)[C@H]1C`, the IC50 was ≤ 30 nM.

The compound `CC[C@@H]1C(=O)N(c2c(C)cccc2C)C[C@]1(C)C(=O)Nc1cc(C(F)(F)F)cc(C(F)(F)F)c1` returned an IC50 of 300 to 6000 nM.

For `Cc1cccc(C)c1N1C[C@@](CN(C)CC2CC2)(C(=O)Nc2cc(C#N)cc(C(F)(F)F)c2)[C@H](C)C1=O`, the IC50 lay in the range of 30 to 300 nM.

`Cc1cccc(C)c1N1CC(C(=O)Nc2cc(C(F)(F)F)cc(C(F)(F)F)c2)(C2=CCNCC2)CC1=O` (stereo not drawn) came in with an IC50 of 300 to 6000 nM.

Consider `Cc1cccc(C)c1N1C[C@@](CN2CCN(CC(F)(F)F)CC2)(C(=O)Nc2cc(F)cc(C(F)(F)F)c2)[C@H](C)C1=O`, for which the IC50 fell in the range of 30 to 300 nM.

Regarding `CC[C@@]1(C(=O)Nc2cc(C(F)(F)F)cc(C(F)(F)F)c2)CC(=O)N(c2c(C)cccc2C)C1`, the IC50 was 30 to 300 nM.

`CCc1cccc(C)c1N1CC(C(=O)Nc2ccc(OC)c(C(F)(F)F)c2)CC1=O` (stereo not drawn) returned an IC50 of 300 to 6000 nM.

With `CCN(C)C[C@@]1(C(=O)Nc2cc(C#N)cc(C(F)(F)F)c2)CN(c2c(C)cccc2C)C(=O)[C@H]1C`, the IC50 is ≤ 30 nM.

Take `CC[C@@]1(C(=O)Nc2cc(C)cc(C(F)(F)F)c2)CN(c2c(C)cccc2C)C(=O)[C@H]1C`: the IC50 is ≤ 30 nM.

Turning to `CC[C@]1(C(=O)Nc2cc(C(F)(F)F)cc(C(F)(F)F)c2)CC(=O)N(c2c(C)cccc2C)C1`, the IC50 is ≤ 30 nM.

Consider `Cc1cccc(C)c1N1C[C@@](CN(CCF)CC(C)C)(C(=O)Nc2cc(C(F)(F)F)cc(C(F)(F)F)c2)[C@H](C)C1=O`, for which the IC50 is ≤ 30 nM.

In the case of `CCN(C[C@@]1(C(=O)Nc2cc(C#N)cc(C(F)(F)F)c2)CN(c2c(C)cccc2C)C(=O)[C@H]1C)C(C)C`, the IC50 is ≤ 30 nM.

Regarding `Cc1cccc(C)c1N1C[C@@](CN(C)CC(F)(F)F)(C(=O)Nc2cc(C(F)(F)F)cc(C(F)(F)F)c2)[C@H](C)C1=O`, the IC50 is ≤ 30 nM.

For `CC[C@@]1(C(=O)Nc2cc(Cl)cc(C#N)c2)CN(c2c(C)cccc2C)C(=O)[C@H]1C`, the IC50 fell in the range of 30 to 300 nM.

With `Cc1cccc(C)c1N1C[C@]2(C(=O)Nc3cc(C(F)(F)F)cc(C(F)(F)F)c3)CC[C@@H]2C1=O`, the IC50 was ≤ 30 nM.

`Cc1cccc(C)c1N1C[C@@](CN2CCOCC2)(C(=O)Nc2cc(C#N)cc(C(F)(F)F)c2)[C@H](C)C1=O` showed an IC50 of 30 to 300 nM.

On to `Cc1cccc(C)c1N1CC(Cc2ncc[nH]2)(C(=O)Nc2cc(C(F)(F)F)cc(C(F)(F)F)c2)CC1=O` (stereo not drawn), for which the IC50 lay within 30 to 300 nM.

Consider `Cc1cccc(C)c1N1CC(C(=O)Nc2cc(C(F)(F)F)cc(C(F)(F)F)c2)(N2CCOCC2)CC1=O` (stereo not drawn), for which the IC50 is ≤ 30 nM.

`CC[C@@]1(C(=O)Nc2cc(C(F)(F)F)cc(C(F)(F)F)c2)CN(c2c(C)cccc2C)C(=O)[C@@H]1C` displayed an IC50 of 30 to 300 nM.

For `Cc1cccc(C)c1N1C[C@@](CN(C)CC(F)F)(C(=O)Nc2cc(C(F)(F)F)cc(C(F)(F)F)c2)[C@H](C)C1=O`, the IC50 is ≤ 30 nM.
